Drawing on BindingDB's records for doi:10.1007/s10822-022-00478-x (Roche Innovation Center Basel, F. Hoffmann-La Roche Ltd., 2022), this text covers IC50 for 59 compounds.

Broadly, the IC50 is the concentration at which inhibition is half-maximal. Low readings indicate inhibition by little substance, high ones a need for much substance.

The target in this test is cAMP and cAMP-inhibited cGMP 3',5'-cyclic phosphodiesterase 10A (Homo sapiens, UniProt Q9Y233). Put plainly: PDE10A assay. The procedure, abridged: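 Scintillation proximity readout of [3H]cGMP hydrolysis (50 nM final substrate, 15 min) by 2 ng/well human PDE10A after 15 min compound preincubation at RT, pH 7.5 with MgCl2. Four-parameter logistic fit gave IC50, reported as pIC50.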
With `Cc1cc(C)n2nc(CCc3nc4c(Cl)cc(Cl)c(C)n4n3)nc2n1` [Roche-Dataset for PDE10A, Compound 1073], half-maximal inhibition (IC50) was put at 276 nM.
The compound `Cc1ncc(C)n2nc(CCc3nc(N4CCCC4)nn3C)nc12` [Roche-Dataset for PDE10A, Compound 626] returned an IC50 of 2.3 nM. This IC50 is about 120-fold lower than that of the compound before.
As for `Cn1ncc(C(=O)N2CCC2)c1C(=O)Nc1ccn(CCC#N)n1` [Roche-Dataset for PDE10A, Compound 1114], the IC50 was 3150 nM.
The result for `CNC(=O)c1cnn(C)c1C(=O)Nc1ccn2cc(-c3cccc(F)c3)nc2n1` [Roche-Dataset for PDE10A, Compound 656] reads 62 nM; that for `Cn1cncc1Cn1nc(-c2ccccn2)cc1NC(=O)c1nc(C2CC2)ccc1Nc1cncnc1` [US8470820, 37], 1.51 nM; that for `CCN(C)C(=O)c1cnn(C)c1C(=O)Nc1ccn2cc(-c3cccc(OCC(=O)OC)c3)nc2n1` [Roche-Dataset for PDE10A, Compound 20], 7.93 nM.
Then `O=C(Nc1cccc(C(=O)N2CCOCC2)n1)c1nc(C2CC2)cnc1Nc1cncnc1` [Roche-Dataset for PDE10A, Compound 920], with 7.49 nM.
Then `O=C(Nc1cccc(OC(F)(F)F)c1)c1nc(C2CC2)cnc1Nc1cncnc1` [Roche-Dataset for PDE10A, Compound 874], with 31 nM.
Turning to `Cn1ncc(C(=O)N2CCOCC2)c1C(=O)N[C@@H]1CCn2cc(-c3ccccc3Cl)nc2C1` [Roche-Dataset for PDE10A, Compound 457], the IC50 worked out at 2410 nM. This IC50 is about 78-fold higher than that of the compound before.
In turn, `CS(=O)(=O)N1CCC(NC(=O)c2nc(C3CC3)cnc2Nc2cncnc2)CC1` [Roche-Dataset for PDE10A, Compound 1072] came in with an IC50 of 2860 nM.
`O=C(Nc1ccc2nccnc2c1)c1nc(C2CC2)ccc1Nc1cncnc1` [Roche-Dataset for PDE10A, Compound 945]: the IC50 turned out to be 55 nM.
Then `COc1ncc(C2CC2)nc1C(=O)Nc1cc(-c2ccccn2)nn1C` [Roche-Dataset for PDE10A, Compound 776], with 1680 nM; and `O=C(Nc1snnc1-c1ccccc1)c1nc(C2CC2)ccc1Nc1cncnc1` [Roche-Dataset for PDE10A, Compound 818], with 7.58 nM; and `O=C(Nc1ccnn1CC(F)F)c1nc(C2CC2)ccc1Nc1cncnc1` [Roche-Dataset for PDE10A, Compound 642], with 46 nM.
Then `Cc1oc(-c2ccccc2)nc1CCNC(=O)c1nc(C2CC2)cnc1Nc1cncnc1` [Roche-Dataset for PDE10A, Compound 202], with 3.08 nM; and `CNC(=O)c1nn(C)cc1NC(=O)c1nc(C2CC2)ccc1N(C)c1cncnc1` [Roche-Dataset for PDE10A, Compound 1122], with 10000 nM.
The result for `CCCNC(=O)c1cc(NC(=O)c2c(C(=O)N3CCC3)cnn2C)nn1C` [Roche-Dataset for PDE10A, Compound 871] reads 10000 nM; that for `Cn1ncc(C(=O)N2CCC2)c1C(=O)Nc1cc2ccccn2n1` [Roche-Dataset for PDE10A, Compound 1147], 692 nM.
In turn, `CCOC(=O)CCc1ccc(NC(=O)c2nc(C3CC3)cnc2Nc2cncnc2)c(C(=O)NC)c1` [US8703768, 321] came in with an IC50 of 0.59 nM.
The compound `O=C(Nc1ccc2cc(-c3ccccc3)nn2c1)c1ccno1` [Roche-Dataset for PDE10A, Compound 679] returned an IC50 of 2360 nM.
The result for `Cn1nc(NC(=O)c2c(C(=O)N3CCC3)cnn2C)cc1C(=O)N1CCCCC1` [Roche-Dataset for PDE10A, Compound 941] reads 10000 nM; that for `CCc1cc(C(F)(F)F)c2nc(CCc3nc(N4CCCC4)nn3C)nn2c1C` [Roche-Dataset for PDE10A, Compound 171], 3.37 nM.
Then `O=C(Nc1cccc(F)c1C(=O)N1CCC1)c1nc(C2CC2)cnc1Nc1cncnc1` [US8703768, 309], with 1.67 nM; and `CCCCc1cc(NC(=O)c2c(C(=O)N3CCC3)cnn2C)[nH]n1` [Roche-Dataset for PDE10A, Compound 985], with 4900 nM; and `CNC(=O)[C@H]1CCC[C@@H]1NC(=O)c1nc(C2CC2)cnc1Nc1cncnc1` [Roche-Dataset for PDE10A, Compound 1000], with 696 nM.
The result for `Cn1ncc(C(=O)N2CC(F)C2)c1C(=O)Nc1ccn2nc(-c3ccccc3)nc2c1` [Roche-Dataset for PDE10A, Compound 165] reads 0.36 nM.
On to `O=C(NC1CCCCCC1)c1nc(C2CC2)cnc1Nc1cncnc1` [Roche-Dataset for PDE10A, Compound 1154], for which half-maximal inhibition (IC50) was put at 1040 nM.
The result for `CNc1cc(C(=O)Nc2ccn3nc(-c4ccccc4)nc3c2)cc(Cl)n1` [Roche-Dataset for PDE10A, Compound 199] reads 86 nM; that for `CCOC(=O)c1cnn(C)c1C(=O)Nc1ccn2nc(C(C)C)nc2c1` [Roche-Dataset for PDE10A, Compound 761], 1450 nM.
The result for `CCN(C)c1cnc(Nc2cncnc2)c(C(=O)Nc2cnn(C)c2C(=O)NC)n1` [US8703768, 311] reads 19 nM.
The compound `COCCN(C)C(=O)c1cnn(C)c1C(=O)Nc1ccn2cc(-c3cccc(OCCCF)c3)nc2n1` [Roche-Dataset for PDE10A, Compound 3] showed an IC50 of 15 nM.
For `O=C1c2ccccc2C(=O)N1CCc1nc(-c2ccccn2)no1` [Roche-Dataset for PDE10A, Compound 490], the IC50 was determined as 5450 nM.
The result for `CNC(=O)c1cc2[nH]c(-c3ccccc3)nc2cc1NC(=O)c1ccnn1C` [Roche-Dataset for PDE10A, Compound 452] reads 14 nM; that for `Cc1ccc(C(=O)Nc2ccn3nc(-c4ccccc4)nc3c2)cn1` [Roche-Dataset for PDE10A, Compound 684], 4670 nM; that for `Cn1ncc(C(=O)N2CCC2)c1C(=O)Nc1ccn2nc(-c3ccccc3OCF)nc2c1` [Roche-Dataset for PDE10A, Compound 71], 1.73 nM.
The result for `Cc1ccc(C)c(C(=O)Nc2ccc3cc(-c4ccccc4)nn3c2)n1` [Roche-Dataset for PDE10A, Compound 324] reads 53 nM; that for `CNC(=O)c1cc(NC(=O)c2nc(C3CC3)ccc2Nc2cncnc2)n(C)n1` [Roche-Dataset for PDE10A, Compound 576], 74 nM; that for `Cc1c(Cl)cc(OC(F)F)c2nc(CCc3nc(N4CCCC4)n(C)n3)nn12` [Roche-Dataset for PDE10A, Compound 206], 0.54 nM.
The result for `O=C(Nc1ccnn1-c1ccccc1)c1nc(C2CC2)ccc1Nc1cncnc1` [Roche-Dataset for PDE10A, Compound 507] reads 0.87 nM; that for `CN(C)c1nc2cc(NC(=O)c3c(C(=O)N4CCC4)cnn3C)ccc2s1` [Roche-Dataset for PDE10A, Compound 461], 3.12 nM; that for `Cn1ncc(C(=O)N2CCC2)c1C(=O)Nc1cc(-c2ccccc2Cl)n[nH]1` [Roche-Dataset for PDE10A, Compound 958], 1290 nM.
With `CN(C(=O)c1cnn(C)c1C(=O)N[C@@H]1CCn2cc(-c3ccccc3OC(F)F)nc2C1)C1CC1` [Roche-Dataset for PDE10A, Compound 192], the IC50 was determined as 7.98 nM.
`Cc1ccc2nc(OCc3nc(-c4ccccc4)cn3C)c(Cl)nc2c1` [Roche-Dataset for PDE10A, Compound 463] came in with an IC50 of 4.23 nM.
Turning to `COCc1ccc(Nc2cncnc2)c(C(=O)Nc2ccnn2-c2ccccn2)n1` [Roche-Dataset for PDE10A, Compound 386], the IC50 was determined as 1.47 nM.
Then `O=C1c2ccccc2C(=O)N1CCc1csc(-c2cccnc2)n1` [Roche-Dataset for PDE10A, Compound 292], with 5910 nM; and `Cc1cc(Nc2cncnc2)cc(C(=O)Nc2cc(-c3ccccn3)nn2C)n1` [Roche-Dataset for PDE10A, Compound 542], with 92 nM.
The result for `CC(C)n1nc(NC(=O)c2nc(C3CC3)ccc2Nc2cncnc2)cc1C(=O)N(C)C` [Roche-Dataset for PDE10A, Compound 1013] reads 793 nM; that for `CNC(=O)c1cc2[nH]c(-c3ccccc3)nc2cc1NC(=O)c1c(Cl)c(C)nn1C` [Roche-Dataset for PDE10A, Compound 358], 22 nM.
Then `O=C(NCCc1noc(Cc2ccccc2)n1)c1nc(C2CC2)cnc1Nc1cncnc1` [Roche-Dataset for PDE10A, Compound 275], with 137 nM; and `Cc1ncc(Nc2cncnc2)c(C(=O)N[C@@H]2CCN(c3ccc(Cl)cn3)C2)n1` [Roche-Dataset for PDE10A, Compound 336], with 242 nM.
The compound `Cn1ncc(C(=O)N2CCC2)c1C(=O)Nc1ccn(C(F)F)n1` [Roche-Dataset for PDE10A, Compound 1100] registered an IC50 of 761 nM.
For the compound `O=C(Nc1nc(CN2CCCCC2)cs1)c1nc(C2CC2)cnc1Nc1cncnc1` [Roche-Dataset for PDE10A, Compound 832], the IC50 was found to be 32 nM.
The result for `CC(=O)N(C)c1cccc(NC(=O)c2nc(C3CC3)cnc2Nc2cncnc2)c1` [Roche-Dataset for PDE10A, Compound 821] reads 135 nM; that for `Cc1c(Cl)cc(Cl)c2nc(CCc3nccs3)nn12` [Roche-Dataset for PDE10A, Compound 996], 511 nM.
On to `COc1ccc(Cn2nc(N3CCCC3)nc2CCc2nc3c(Cl)cc(Cl)c(C)n3n2)cc1` [Roche-Dataset for PDE10A, Compound 97], for which the 50% inhibitory concentration (IC50) was found to be 0.64 nM. Against the preceding compound, the IC50 is about 800-fold lower.
Then `CCOC(=O)c1cnn(C)c1C(=O)Nc1ccc2nc(N3CCOCC3)nn2c1` [Roche-Dataset for PDE10A, Compound 1117], with 1990 nM; and `O=C(Nc1cc2nc(-c3ccccc3)cn2cc1Br)c1nc(C2CC2)ccc1Nc1cncnc1` [Roche-Dataset for PDE10A, Compound 354], with 1.15 nM.
Then `O=C(Nc1ccc(N2CCOCC2=O)cc1)c1nc(C2CC2)ccc1Nc1cncnc1` [Roche-Dataset for PDE10A, Compound 686], with 43 nM; and `CC(C)c1nc2cc(NC(=O)c3c(C(=O)O)cnn3C)ccn2n1` [Roche-Dataset for PDE10A, Compound 848], with 1230 nM.
